The assay has as its system HL60 cells. Kind of assay: Anti-proliferation on HL60 cells (CellTiter-Glo, 3 days). In kind it is cell-based. To be noted: Homo sapiens, HL-60, 72 h, 3 days incubation, CTG luminescence, IC50 by XLfit, read-out: HL60 cells Proliferation inhibitory activity. The procedure:
HL60 cells (Cell Bank of Chinese Academy of Sciences) in the logarithmic growth phase were counted and plated evenly in a 96-well transparent bottom white plate at 20000 cells per well and 100 μL per well.
A certain amount of the compound of the present invention was weighed and diluted with DMSO to a 10 mM stock solution. The culture medium RPMI-1640 (meilunbio, MA0215) corresponding to the cells were taken, and the compound was diluted to the concentration required by the test, shaken gently and mixed evenly. 50 μL of the gradient dilution of the diluted compound was added to each well of the plated cells, and 50 μL of 0.1% DMSO was added to the control group. The plate was shaken gently, mixed evenly and incubated in a cell culture incubator for 3 days.
• 3.1 The CellTiter-Glo™ (CTG) (purchased from Promega, Cat. No. G9242) reagent was taken in advance from the −20° C. refrigerator and equilibrated to room temperature in the dark. Cell Titer-Glo buffer and Cell Titer-Glo substrate were mixed at a ratio of 1:1 to prepare a CTG detection reagent. • 3.2 The 96-well plate was taken out and inspected under a microscope for growth. • 3.3 The bottom of the 96-well plate was tagged with white paper, and then the plate was wrapped with tin foil paper, shaken at 37° C. at 300 r for 10 min and mixed evenly. • 3.4. 50 μL of CTG detection reagent was added to each well, Luminescence signal was detected using a microplate reader Biotek Synergy Hi, and the inhibition rate was calculated. IC50 values of the compounds were calculated by XLfit 5.5.0 software to evaluate the proliferation inhibitory activity on HL60 cells.

Bounds are passed on as bounds.

From patent publication US20250059162A1, “MULTI-PROTEIN DEGRADATION AGENT HAVING IMIDE SKELETON” (SUZHOU KINTOR PHARMACEUTICALS, INC., priority 2021, published 2025) come the findings set out here.

Regarding `N#CC1(CNCc2ccc3c(c2)CN(C2CCC(=O)NC2=O)C3=O)CCN(c2ncc(-c3cccc(Cl)c3)cc2C(F)(F)F)CC1` (stereo not drawn) [Compound A89], the IC50 worked out at 9.2 nM.
To `O=C1CCC(N2Cc3cc(CNCC4CC5CCC(C4)N5c4ncc(-c5cccc(Cl)c5)cc4C(F)(F)F)ccc3C2=O)C(=O)N1` (stereo not drawn) [Compound A90] belongs 45.6 nM; to `O=C1CCC(N2Cc3cc(CNCC4C5CCC4CN(c4ncc(-c6cccc(Cl)c6)cc4C(F)(F)F)C5)ccc3C2=O)C(=O)N1` (stereo not drawn) [Compound A91], 36.1 nM; to `O=C1CCC(N2Cc3cc(CNCC4CCN(c5ncc(-c6cccc(OC(F)(F)F)c6)cc5C(F)(F)F)CC4)ccc3C2=O)C(=O)N1` (stereo not drawn) [Compound A96], 1.8 nM.
As for `CN(C)c1cccc(-c2cnc(N3CCC(CNCc4ccc5c(c4)CN(C4CCC(=O)NC4=O)C5=O)CC3)c(C(F)(F)F)c2)c1` (stereo not drawn) [Compound A97], the figure is 0.4 nM.
As for `NC(=O)c1cc(-c2cccc(Cl)c2)cnc1N1CCC(CNCc2ccc3c(c2)CN(C2CCC(=O)NC2=O)C3=O)CC1` (stereo not drawn) [Compound A99], the IC50 is 1.2 nM.
As for `O=C1CCC(N2Cc3cc(CNCC4CCN(c5cc(F)c(-c6cccc(Cl)c6)cn5)CC4)ccc3C2=O)C(=O)N1` (stereo not drawn) [Compound A101], the figure is 10.9 nM; as for `O=C1CCC(N2Cc3cc(CNCC4CCN(c5ccc(-c6cccc(Cl)c6)cc5C(F)(F)F)CC4)ccc3C2=O)C(=O)N1` (stereo not drawn) [Compound A104], 20.5 nM; as for `O=C1CCC(N2Cc3cc(CNCC4CCN(c5ncc(-c6ccccn6)cc5F)CC4)ccc3C2=O)C(=O)N1` (stereo not drawn) [Compound A106], 878 nM.
For `COc1cc(Cl)cc(-c2cnc(N3CCC(CNCc4ccc5c(c4)CN(C4CCC(=O)NC4=O)C5=O)CC3)c(C(F)(F)F)c2)c1` (stereo not drawn) [Compound A113], the IC50 stood at 3 nM.
With `Cc1cc(Cl)cc(-c2cnc(N3CCC(CNCc4ccc5c(c4)CN(C4CCC(=O)NC4=O)C5=O)CC3)c(C(F)(F)F)c2)c1` (stereo not drawn) [Compound A114], the IC50 was found to be 11 nM.
To `O=C1CCC(N2Cc3cc(CNCC4CCN(c5ncc(-c6cc(F)cc(Cl)c6)cc5C(F)(F)F)CC4)ccc3C2=O)C(=O)N1` (stereo not drawn) [Compound A115] belongs 1.5 nM.
As for `O=C(CC1CCN(c2ncc(-c3cccc4ccccc34)cn2)CC1)Nc1ccc2c(c1)CN(C1CCC(=O)N(COP(=O)(O)O)C1=O)C2=O` (stereo not drawn) [Compound A117], the figure is 12 nM; as for `O=C1CCC(N2Cc3cc(CNCC4CCN(c5ncc(-c6cccc(Cl)c6)cc5C(F)F)CC4)ccc3C2=O)C(=O)N1` (stereo not drawn) [Compound A118], 3.97 nM; as for `COc1cccc(-c2cnc(N3CCC(F)(C(=O)NCc4ccc5c(c4)CN(C4CCC(=O)NC4=O)C5=O)CC3)c(F)c2)c1` (stereo not drawn) [Compound A119], 1.09 nM.
As for `COc1cccc(-c2cnc(N3CCC(F)(CNCc4ccc5c(c4)CN(C4CCC(=O)NC4=O)C5=O)CC3)c(F)c2)c1` (stereo not drawn) [Compound A120], the figure is 2.47 nM.
On to `COc1cccc(-c2cnc(N3CCC(F)(CNCc4ccc5c(c4)CN(C4CCC(=O)NC4=O)C5=O)CC3)c(C(F)(F)F)c2)c1` (stereo not drawn) [Compound A121], for which the IC50 stood at 4.69 nM.
To `O=C1CCC(N2Cc3cc(CNCC4(F)CCN(c5ncc(-c6cccc(F)c6)cc5F)CC4)ccc3C2=O)C(=O)N1` (stereo not drawn) [Compound A122] belongs 1.76 nM; to `Cc1cccc(-c2cnc(N3CCC(CNCc4ccc5c(c4)CN([C@H]4CCC(=O)NC4=O)C5=O)CC3)c(C(F)(F)F)c2)c1` [Compound A123], below 3.04 nM; to `Cc1cccc(-c2cnc(N3CCC(CNCc4ccc5c(c4)CN([C@@H]4CCC(=O)NC4=O)C5=O)CC3)c(C(F)(F)F)c2)c1` [Compound A124], below 3.04 nM.
With `O=C1CC[C@H](N2Cc3cc(CNCC4CCN(c5ncc(-c6cccc(F)c6)cc5F)CC4)ccc3C2=O)C(=O)N1` [Compound A125], the IC50 came out at 2.48 nM.
As for `O=C1CC[C@@H](N2Cc3cc(CNCC4CCN(c5ncc(-c6cccc(F)c6)cc5F)CC4)ccc3C2=O)C(=O)N1` [Compound A126], the figure is 6.7 nM; as for `O=C1CC[C@H](N2Cc3cc(CNCC4(F)CCN(c5ncc(-c6cccc(Cl)c6)cc5C(F)(F)F)CC4)ccc3C2=O)C(=O)N1` [Compound A127], 6.75 nM.
In the case of `O=C1CC[C@@H](N2Cc3cc(CNCC4(F)CCN(c5ncc(-c6cccc(Cl)c6)cc5C(F)(F)F)CC4)ccc3C2=O)C(=O)N1` [Compound A128], the IC50 came to 9.04 nM.
To `O=C1CCC(N2Cc3cc(CNCC4CCN(c5ncc(-n6c7ccccc7c7ccccc76)cc5C(F)(F)F)CC4)ccc3C2=O)C(=O)N1` (stereo not drawn) [Compound A129] belongs 120 nM; to `Cc1ccc(N2CCN(Cc3ccc(C(=O)NCc4ccc5c(c4)CN(C4CCC(=O)NC4=O)C5=O)cc3)CC2)cc1Cl` (stereo not drawn) [Compound A130], 0.54 nM; to `COc1cccc(-c2cnc(N3CCC(CCNc4ccc5c(c4)CN(C4CCC(=O)NC4=O)C5=O)CC3)c(C(F)(F)F)c2)c1` (stereo not drawn) [Compound A132], 8.37 nM.
To `O=C1CCC(N2Cc3cc(OCCC4CCN(c5ncc(-c6cccc(Cl)c6)cc5C(F)(F)F)CC4)ccc3C2=O)C(=O)N1` (stereo not drawn) [Compound A133] belongs 175 nM; to `O=C1CCC(N2Cc3cc(CCCN4CCN(c5ncc(-c6cccc(Cl)c6)cc5C(F)(F)F)CC4)ccc3C2=O)C(=O)N1` (stereo not drawn) [Compound A135], 25.7 nM; to `O=C1CCC(N2C(=O)c3cc4c(cc3C2=O)CN(CC2CCN(c3ncc(-c5cccc(Cl)c5)cc3C(F)(F)F)CC2)C4)C(=O)N1` (stereo not drawn) [Compound A138], 1100 nM.
To `O=C1CCC(N2Cc3c(ccc(CNCC4CCN(c5ncc(-c6cccc(Cl)c6)cc5C(F)(F)F)CC4)c3F)C2=O)C(=O)N1` (stereo not drawn) [Compound A139] belongs 17.7 nM; to `O=C1CCC(N2Cc3nc(CNCC4CCN(c5ncc(-c6cccc(Cl)c6)cc5C(F)(F)F)CC4)ccc3C2=O)C(=O)N1` (stereo not drawn) [Compound A141], 160 nM; to `O=C1CCC(N2Cc3cc(CNCC4CCN(c5ncc(-c6cccc(Cl)c6)cc5C(F)(F)F)CC4)ncc3C2=O)C(=O)N1` (stereo not drawn) [Compound A142], 397 nM.
For `O=C1CCC(N2Cc3c(csc3CNCC3CCN(c4ncc(-c5cccc(Cl)c5)cc4C(F)(F)F)CC3)C2=O)C(=O)N1` (stereo not drawn) [Compound A143], the IC50 is 3040 nM.
To `COc1cccc(-c2cnc(N3CCC(CNCc4scc5c4CN(C4CCC(=O)NC4=O)C5=O)CC3)c(C(F)(F)F)c2)c1` (stereo not drawn) [Compound A144] belongs 752 nM; to `O=C1CCC(n2nc3cc(CNCC4CCN(c5ncc(-c6cccc(F)c6)cc5F)CC4)ccn3c2=O)C(=O)N1` (stereo not drawn) [Compound A147], 12300 nM; to `O=C1CCC(c2cn3cc(CNCC4CCN(c5ncc(-c6cccc(Cl)c6)cc5C(F)(F)F)CC4)ccc3n2)C(=O)N1` (stereo not drawn) [Compound A148], 8520 nM.
`O=C1CCC(c2coc3cc(CNCC4CCN(c5ncc(-c6cccc(Cl)c6)cc5C(F)(F)F)CC4)ccc23)C(=O)N1` (stereo not drawn) [Compound A149]: the IC50 amounted to 1740 nM.
As for `O=C1CCC(c2coc3ccc(CNCC4CCN(c5ncc(-c6cccc(Cl)c6)cc5C(F)(F)F)CC4)cc23)C(=O)N1` (stereo not drawn) [Compound A150], the figure is 3360 nM.
To `Cc1nc2ccc(CNCC3CCN(c4ncc(-c5cccc(Cl)c5)cc4C(F)(F)F)CC3)cc2c(=O)n1C1CCC(=O)NC1=O` (stereo not drawn) [Compound A151] belongs 687 nM; to `Cc1nc2cc(CNCC3CCN(c4ncc(-c5cccc(Cl)c5)cc4C(F)(F)F)CC3)ccc2c(=O)n1C1CCC(=O)NC1=O` (stereo not drawn) [Compound A152], 7320 nM; to `O=C1CCC(n2c(C3CC3)nc3cc(CNCC4CCN(c5ncc(-c6cccc(Cl)c6)cc5C(F)(F)F)CC4)ccc3c2=O)C(=O)N1` (stereo not drawn) [Compound A153], 11600 nM.
As for `O=C1CCC(n2nnc3ccc(CNCC4CCN(c5ncc(-c6cccc(Cl)c6)cc5C(F)(F)F)CC4)cc3c2=O)C(=O)N1` (stereo not drawn) [Compound A154], the IC50 stood at 116 nM.
To `O=C1CCC(NC(=O)c2ccc(CNCC3CCN(c4ncc(-c5cccc(Cl)c5)cc4C(F)(F)F)CC3)cc2)C(=O)N1` (stereo not drawn) [Compound A155] belongs 825 nM; to `O=C1CCC(NC(=O)c2ccc(CNCC3CCN(c4ncc(-c5cccc(Cl)c5)cc4C(F)(F)F)CC3)cn2)C(=O)N1` (stereo not drawn) [Compound A156], 268 nM.
To `O=C1CCC(NC(=O)c2ccc(CNCC3CCN(c4ncc(-c5cccc(Cl)c5)cc4C(F)(F)F)CC3)nc2)C(=O)N1` (stereo not drawn) [Compound A157] belongs 11700 nM.
As for `O=C1CCC(NC(=O)c2ccc(CNCC3CCN(c4ncc(-c5cccc(Cl)c5)cc4C(F)(F)F)CC3)cc2F)C(=O)N1` (stereo not drawn) [Compound A158], the figure is 6660 nM; as for `O=C1CCC(NC(=O)c2ccc(CNCC3CCN(c4ncc(-c5cccc(Cl)c5)cc4C(F)(F)F)CC3)c(F)c2)C(=O)N1` (stereo not drawn) [Compound A159], 6700 nM; as for `O=C1CCC(NC(=O)c2ccc(CNCC3CCN(c4ncc(-c5cccc(Cl)c5)cc4C(F)(F)F)CC3)c(Br)c2)C(=O)N1` (stereo not drawn) [Compound A160], 1100 nM.
Regarding `COc1cc(CNCC2CCN(c3ncc(-c4cccc(Cl)c4)cc3C(F)(F)F)CC2)ccc1C(=O)NC1CCC(=O)NC1=O` (stereo not drawn) [Compound A161], the IC50 amounted to 11200 nM.
In the case of `CN(C(=O)c1ccc(CNCC2CCN(c3ncc(-c4cccc(Cl)c4)cc3C(F)(F)F)CC2)cc1)C1CCC(=O)NC1=O` (stereo not drawn) [Compound A163], the IC50 is 8220 nM.
